# Assay results as given in US10183949B2, “Pyrimidinone derivative having autotaxin-inhibitory activity” (The University of Tokyo, priority 2014, dated 2019).
# Biological target: T1, Human autotaxin enzyme (Homo sapiens, UniProt Q13822)
# T1 construct: purchased R&D System
# Test: Evaluation of autotaxin inhibitor, 18:0 Lyso PC / choline assay (Test Example 2)
# Assay type: biochemical
# Details: human autotaxin enzyme, 18:0 Lyso PC substrate, choline assay, room temperature 2 hours; read-out: Inhibitor activity (IC50)
# Experimental: Solution B containing 100 mM Tris-HCl buffer (pH7.5), 150 mM NaCl, 5 mM MgCl2, and 0.05% Triton X-100 was prepared. Human autotaxin enzyme (purchased from R&D System) was diluted with Solution B, and 2.5 μl of which was added to a solution of test compound in DMSO. Furthermore, 2.5 μl of 200 μM 18:0 Lyso PC (purchased from Avanti Polar Lipids) in Solution B was added and allowed to react at room temperature for 2 hours. After completion of the reaction, 15 μl of the coline assay reagent. (100 mM Tris-HCl buffer (pH7.5), 5 mM. MgCl2, 77 μg/ml coline oxidase, 10 μg/ml peroxydase, 25μM 10-acetyl-3,7-dihydroxyphenoxazine, and excess autotaxin inhibitor) was added and allowed to react at room temperature for 20 minutes. The fluorescent dye Resorufin, which was produced by the reaction, was detected. The fluorescence was detected using ViewLux
# (PerkinElmer, Inc.) with a excitation wavelength of 531 nm and a fluorescence wavelength of 598 nm.
# The percent inhibition of the test compound was calculated by assuming the sample with no test compound as 0% inhibition and the sample with no enzyme as 100% inhibition, and the percent inhibitions at different concentrations of the test compound were plotted to obtain a concentration-dependent curve.
row,IC50 [nM],SMILES
1,≥ 1000,CCCCCn1c(-c2ccc(Cl)cc2)cc(=O)n(C)c1=N [Compound I-0001]
2,100 to 1000,CCCCCc1nc(-c2ccc(Cl)cc2)[nH]c(=O)c1Cc1ccc(C(=O)O)cc1 [Compound I-0002]
3,100 to 1000,CCCCCc1nc(-c2ccc(Cl)cc2)[nH]c(=O)c1Cc1cccc(C(=O)O)c1 [Compound I-0003]
4,≥ 1000,CCCCCNc1nc(-c2ccc(C(F)(F)F)cc2)cc(=O)n1Cc1ccccc1 [Compound I-0004]
5,≥ 1000,CCCCCc1nc(-c2ccc(Cl)cc2)cc(=O)n1C [Compound I-0005]
6,≥ 1000,CCCCCc1nc(-c2ccc(Cl)cc2)cc(=O)n1CC [Compound I-0006]
7,≥ 1000,CCCCCc1nc(-c2ccc(Cl)cc2)cc(=O)n1Cc1ccccc1 [Compound I-0007]
8,100 to 1000,CCCCCc1nc(-c2ccc(Cl)cc2)cc(=O)n1Cc1ccc(C(=O)O)cc1 [Compound I-0008]
9,10 to 100,CCCCCc1nc(-c2ccc(Cl)cc2)cc(=O)n1Cc1cccc(C(=O)O)c1 [Compound I-0009]
10,100 to 1000,CCCCCNc1nc(-c2ccc(C(F)(F)F)cc2)cc(=O)n1Cc1ccc(C(=O)O)cc1 [Compound I-0010]
11,≥ 1000,CCCCCNc1nc(-c2ccc(C(F)(F)F)cc2)cc(=O)n1Cc1cccc(C(=O)OC(C)(C)C)c1 [Compound I-0011]
12,10 to 100,CCCCCNc1nc(-c2ccc(C(F)(F)F)cc2)cc(=O)n1Cc1cccc(C(=O)O)c1 [Compound I-0012]
13,100 to 1000,CCCCCNc1nc(-c2ccc(C(F)(F)F)cc2)cc(=O)n1Cc1cccc(C(=O)NCC(N)=O)c1 [Compound I-0013]
14,100 to 1000,CCCCCNc1nc(-c2ccc(C(F)(F)F)cc2)cc(=O)n1Cc1cccc(C(=O)NC(Cc2ccccc2)C(=O)O)c1 (centres unmarked) [Compound I-0014]
15,10 to 100,CCCCCNc1nc(-c2ccc(C(F)(F)F)cc2)cc(=O)n1Cc1cccc(C(=O)NCC(=O)O)c1 [Compound I-0015]
16,100 to 1000,CCCCCNc1nc(-c2ccc(C(F)(F)F)cc2)cc(=O)n1Cc1cccc(C(=O)NCCC(=O)O)c1 [Compound I-0016]
17,100 to 1000,CCCCCNc1nc(-c2ccc(C(F)(F)F)cc2)cc(=O)n1Cc1ccc(C(=O)NC(Cc2ccccc2)C(=O)O)cc1 (centres unmarked) [Compound I-0017]
18,100 to 1000,CCCCCNc1nc(-c2ccc(C(F)(F)F)cc2)cc(=O)n1Cc1ccc(C(=O)NCC(=O)O)cc1 [Compound I-0018]
19,≥ 1000,CCCCCNc1nc(-c2ccc(C(F)(F)F)cc2)cc(=O)n1Cc1ccc(C(=O)NCC(N)=O)cc1 [Compound I-0019]

row,IC50 [nM],SMILES
1,100 to 1000,CCCCCNc1nc(-c2ccc(C#N)cc2)cc(=O)n1Cc1cccc(C(=O)OC(C)(C)C)c1 [Compound I-0021]
2,10 to 100,CCCCCNc1nc(-c2ccc(C#N)cc2)cc(=O)n1Cc1cccc(C(=O)O)c1 [Compound I-0022]
3,10 to 100,CCCCCc1nc(-c2ccc(Cl)cc2)cc(=O)n1CC(=O)OC [Compound I-0023]
4,< 10,CCCCCc1nc(-c2ccc(Cl)cc2)cc(=O)n1CC(=O)NC(Cc1ccccc1)C(=O)O (centres unmarked) [Compound I-0024]
5,10 to 100,CCCCCc1nc(-c2ccc(Cl)cc2)cc(=O)n1CC(=O)NC(C)C [Compound I-0026]
6,100 to 1000,CCCCCc1nc(-c2ccc(Cl)cc2)cc(=O)n1CC(=O)NCCO [Compound I-0027]
7,10 to 100,CCCCCc1nc(-c2ccc(Cl)cc2)cc(=O)n1CC(=O)NC1COC1 [Compound I-0028]
8,100 to 1000,CCCCCc1nc(-c2ccc(Cl)cc2)cc(=O)n1CC(=O)N(C)CCO [Compound I-0029]
9,100 to 1000,CCCCCc1nc(-c2ccc(Cl)cc2)cc(=O)n1CC(=O)NCCCO [Compound I-0030]
10,100 to 1000,CCCCCc1nc(-c2ccc(Cl)cc2)cc(=O)n1CC(=O)NCCC(N)=O [Compound I-0031]
11,100 to 1000,CCCCCc1nc(-c2ccc(Cl)cc2)cc(=O)n1CC(=O)NCCN(C)C [Compound I-0032]
12,10 to 100,CCCCCc1nc(-c2ccc(Cl)cc2)cc(=O)n1CC(=O)NCC1(CO)CC1 [Compound I-0033]
13,100 to 1000,CCCCCc1nc(-c2ccc(Cl)cc2)cc(=O)n1CC(=O)NCc1ccccc1 [Compound I-0034]
14,10 to 100,CCCCCc1nc(-c2ccc(Cl)cc2)cc(=O)n1CC(=O)NCC1(CO)COC1 [Compound I-0035]
15,100 to 1000,CCCCCc1nc(-c2ccc(Cl)cc2)cc(=O)n1CC(=O)N(C)Cc1ccccc1 [Compound I-0036]
16,100 to 1000,CCCCCc1nc(-c2ccc(Cl)cc2)cc(=O)n1CC(=O)NCC1CCC(=O)NC1 (centres unmarked) [Compound I-0037]
17,100 to 1000,CCCCCc1nc(-c2ccc(Cl)cc2)cc(=O)n1CC(=O)NCc1cccc(=O)n1C [Compound I-0038]
18,10 to 100,CCCCCc1nc(-c2ccc(Cl)cc2)cc(=O)n1CC(=O)NC(C)C(=O)O (centres unmarked) [Compound I-0039]
19,10 to 100,CCCCCc1nc(-c2ccc(Cl)cc2)cc(=O)n1CC(=O)NCCC(=O)O [Compound I-0040]

row,IC50 [nM],SMILES
1,10 to 100,CCCCCc1nc(-c2ccc(Cl)cc2)cc(=O)n1CC(=O)NCc1ccc(C(=O)O)cc1 [Compound I-0041]
2,< 10,CCCCCc1nc(-c2ccc(Cl)cc2)cc(=O)n1CC(=O)N1CCC(C(=O)O)CC1 [Compound I-0042]
3,10 to 100,CCCCCc1nc(-c2ccc(Cl)cc2)cc(=O)n1CC(=O)NCCCCCC(=O)O [Compound I-0043]
4,< 10,CCCCCc1nc(-c2ccc(Cl)cc2)cc(=O)n1CC(=O)NCCCC(=O)O [Compound I-0044]
5,< 10,CCCCCc1nc(-c2ccc(Cl)cc2)cc(=O)n1CC(=O)N1CCC(CC(=O)O)CC1 [Compound I-0045]
6,10 to 100,CCCCCc1nc(-c2ccc(Cl)cc2)cc(=O)n1CC(=O)N1CCC(c2ccccc2C(=O)O)CC1 [Compound I-0046]
7,100 to 1000,CCCCCc1nc(-c2ccc(Cl)cc2)cc(=O)n1CC(=O)N1CCCC(c2ccc(C(=O)O)cc2)C1 (centres unmarked) [Compound I-0047]
8,< 10,CCCCCc1nc(-c2ccc(Cl)cc2)cc(=O)n1CC(=O)N1CCN(CC(=O)O)CC1 [Compound I-0048]
9,100 to 1000,CCCCCc1nc(-c2ccc(Cl)cc2)cc(=O)n1CC(=O)N1CCCCC1C(=O)O (centres unmarked) [Compound I-0049]
10,100 to 1000,CCCCCc1nc(-c2ccc(Cl)cc2)cc(=O)n1CC(=O)NC(C(=O)O)C(C)C (centres unmarked) [Compound I-0050]
11,< 10,CCCCCc1nc(-c2ccc(Cl)cc2)cc(=O)n1CC(=O)NC(CC)C(=O)O (centres unmarked) [Compound I-0051]
12,< 10,CCCCCc1nc(-c2ccc(Cl)cc2)cc(=O)n1CC(=O)NC(CO)C(=O)O (centres unmarked) [Compound I-0052]
13,10 to 100,CCCCCc1nc(-c2ccc(Cl)cc2)cc(=O)n1CC(=O)N1CCC(c2cccc(C(=O)O)c2)CC1 [Compound I-0053]
14,100 to 1000,CCCCCc1nc(-c2ccc(Cl)cc2)cc(=O)n1CC(=O)NCc1ccccc1C(=O)O [Compound I-0054]
15,< 10,CCCCCc1nc(-c2ccc(Cl)cc2)cc(=O)n1CC(=O)NCC(=O)NCC(=O)O [Compound I-0055]
16,< 10,CCCCCc1nc(-c2ccc(Cl)cc2)cc(=O)n1CC(=O)NC(C)(C)C(=O)O [Compound I-0056]
17,10 to 100,CCCCCc1nc(-c2ccc(Cl)cc2)cc(=O)n1CC(=O)NC1(C(=O)O)CCCC1 [Compound I-0057]
18,≥ 1000,CCCCCc1nc(-c2ccc(Cl)cc2)cc(=O)n1CC(=O)NC1(C(=O)O)CCOCC1 [Compound I-0058]
